Measured values as given in article PMC9820070, “Synthesis, Photochemistry, Computational Study and Potential Application of New Styryl-Thiophene and Naphtho-Thiophene Benzylamines” (International Journal of Molecular Sciences, 2022).

What was measured:
[1] = biological target: T1, butyrylcholinesterase from equine serum (Equus caballus, UniProt P81908); conditions: earlier work; cited from earlier work
[2] = test system: TNFα production in human PBMCs; set-up: method as in PMID 35228009; conditions: earlier work; cited from earlier work
[3] = Acid resistance: pH change of UV spectra and NMR control at pH 1; type: physicochemical; conditions: 1H NMR spectrum recorded at pH 1
[4] = biological target: acetylcholinesterase from electric eel (Electrophorus electricus, UniProt O42275); experiment: biochemical
Chain of acetylcholinesterase from electric eel (O42275 24-633): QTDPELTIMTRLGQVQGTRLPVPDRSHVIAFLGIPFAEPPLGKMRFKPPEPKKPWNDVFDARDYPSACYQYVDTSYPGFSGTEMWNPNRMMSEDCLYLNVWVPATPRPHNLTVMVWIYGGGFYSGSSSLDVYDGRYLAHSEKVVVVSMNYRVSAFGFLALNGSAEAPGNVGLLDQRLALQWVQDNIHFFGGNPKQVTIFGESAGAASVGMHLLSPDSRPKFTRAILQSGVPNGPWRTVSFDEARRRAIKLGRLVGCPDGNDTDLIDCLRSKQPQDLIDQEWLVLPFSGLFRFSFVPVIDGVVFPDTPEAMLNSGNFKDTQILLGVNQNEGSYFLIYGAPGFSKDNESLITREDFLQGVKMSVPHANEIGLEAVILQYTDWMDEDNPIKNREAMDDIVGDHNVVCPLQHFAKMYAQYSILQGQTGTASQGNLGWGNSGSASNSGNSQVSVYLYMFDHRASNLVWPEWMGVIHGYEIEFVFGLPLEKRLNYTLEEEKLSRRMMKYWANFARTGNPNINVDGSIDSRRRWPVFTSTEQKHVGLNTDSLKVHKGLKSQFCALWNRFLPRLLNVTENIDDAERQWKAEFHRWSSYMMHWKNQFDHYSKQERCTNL

[5] = test system: THP-1 cell line; experiment: THP-1 cell viability assay (CellTiter Glo); type: cell-based; conditions: THP-1, 72 h incubation
[6] = test system: TNFα production in human PBMCs; experiment: TNFα production in LPS stimulated PBMCs; type: cell-based; conditions: compound treatment and LPS stimulation
[7] = biological target: T1, butyrylcholinesterase from equine serum; experiment: biochemical

T1 sequence (P81908 whole entry): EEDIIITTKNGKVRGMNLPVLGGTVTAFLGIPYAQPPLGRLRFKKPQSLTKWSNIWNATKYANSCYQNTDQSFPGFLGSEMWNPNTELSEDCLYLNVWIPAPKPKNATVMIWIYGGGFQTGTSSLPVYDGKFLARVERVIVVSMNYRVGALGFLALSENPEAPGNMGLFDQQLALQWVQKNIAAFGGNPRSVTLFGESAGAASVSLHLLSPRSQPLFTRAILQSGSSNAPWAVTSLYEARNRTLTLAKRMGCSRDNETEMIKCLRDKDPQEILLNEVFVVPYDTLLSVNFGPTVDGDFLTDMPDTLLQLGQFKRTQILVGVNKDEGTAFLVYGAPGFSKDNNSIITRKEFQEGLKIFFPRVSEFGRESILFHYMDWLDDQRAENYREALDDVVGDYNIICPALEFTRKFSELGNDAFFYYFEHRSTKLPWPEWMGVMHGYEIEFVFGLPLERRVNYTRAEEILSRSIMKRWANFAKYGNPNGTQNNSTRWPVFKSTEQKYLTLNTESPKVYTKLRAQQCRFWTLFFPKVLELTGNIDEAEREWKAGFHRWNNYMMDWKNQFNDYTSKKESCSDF

## C=CCn1nnc2ccc3sccc3c21 [allyl-thienobenzotriazole IV]
[1]
  potency as inhibitor of eqBChE compared to the standard galantamine: twice as potent
[2]
  TNFα production in PBMCs in response to the LPS stimulus: strongly inhibited

## C(=C/c1cccs1)/c1ccc(NCc2cccs2)cc1 [cis-8, (Z)-4-(2-(thiophen-2-yl)vinyl)-N-(thiophen-2-ylmethyl)aniline]
[3]
  acid resistance (1H NMR, cis configuration retained): strong acid resistance
[4]; electric eel AChE, Ellman's method
  IC50: 133 µM

## COc1ccc(CNc2ccc3ccc4sccc4c3c2)cc1 [Compound 13, N-(4-methoxybenzyl)naphtho [2,1-b]thiophen-8-amine]
[5]
  effect on cell viability (antiproliferative activity): most potent
[6]
  effect on TNFα production: did not have any effect

## Fc1ccc(CNc2ccc(/C=C/c3cccs3)cc2)cc1 [trans-2, (E)-N-(4-fluorobenzyl)-4-(2-(thiophen-2-yl)vinyl)aniline]
[6]
  effect on TNFα production: did not have any effect

## c1csc(CNc2ccc3ccc4sccc4c3c2)c1 [Compound 15, N-(thiophen-2-ylmethyl)naphtho [2,1-b]thiophen-8-amine]
[7]; equine serum BChE, Ellman's method
  IC50: ~32.3 µM

## C(=C\c1cccs1)/c1ccc(NCc2cccs2)cc1 [trans-8, (E)-4-(2-(thiophen-2-yl)vinyl)-N-(thiophen-2-ylmethyl)aniline]
[7]; tested at final concentrations 20–250 μM
  inhibition values, BChE: smaller than 50%
[4]
  inhibition values, AChE: smaller than 50%

## Fc1ccc(CNc2ccc3ccc4sccc4c3c2)cc1 [Compound 9, N-(4-fluorobenzyl)naphtho [2,1-b]thiophen-8-amine]
[5]
  effect on cell viability (antiproliferative activity): most potent
[6]
  effect on TNFα production: did not have any effect
